Measured values from patent US12115256B2, “Targeted liposomal gemcitabine and methods thereof” (L.E.A.F. HOLDINGS GROUP LLC, priority 2016, dated 2024).
Where two headings read alike, the source gives them in different places. One block for each compound: values may come before it.

Experiments:
[1] = test system: SKBR3 breast cancer cells; test: MTS cell proliferation assay, SKBR3; assay type: cell-based; settings: Homo sapiens, SK-BR-3, 96 h, 4 days
Source text: (§1) Cells lines used in the experiments are commercially available from sources such as the ATCC (American Type Culture Collection of Manassas, Virginia, U.S.A). The cell lines, their ATCC accession numbers and growth conditions are listed below. • NCI-H2452 (ATCC® CRL-5946TH); RPMI-1640 (Cat. #30-2001); 10% HI FBS; 1% Pen/Strep; 1% L-Glutamine. • PANC-1 (ATCC® CRL-1469TH); Dulbecco's Modified Eagle's Medium (DMEM) (ATCC® 30-2002TM) 10% HI FBS; 1% Pen/Strep; 1% L-Glutamine • SKBR3; McCoy 5A Medium; 10% HI FBS; 1% Pen/Strep; 1% L-Glutamine.
(§2) Cancer cell lines were seeded in 96 well plates on day 0 at optimal cell numbers. On day 1, drug formulations were added at 2-fold serial dilutions. The cells were incubated for 3-5 days and the level of inhibition of cellular proliferation was measured by the MTS assay (3-(4,5-dimethylthiazol-2-yl)-5-(3-carboxymethoxyphenyl)-2-(4-sulfophenyl)-2H-tetrazolium assay). The commercially available MTS Cell Proliferation Assay Kit (Colorimetric) (197010) is a colorimetric sensitive quantification of viable cells in proliferation and cytotoxicity assay. […]
(§3) On day 4, the effect on cellular proliferation was measured with MTS assay. […] The plates were incubated for 2 hours at 37° C. and the absorbance was measured at 490 nm. […]

[2] = test system: NCI-H2452 lung (mesothelioma) cancer cells; test: MTS cell proliferation assay, NCI-H2452; assay type: cell-based; settings: Homo sapiens, 96 h, 4 days, MTS (FIG. 2)
Source text: as §1, §2, §3

[3] = test system: PANC-1 pancreatic cancer cells; test: MTS cell proliferation assay, PANC-1; assay type: cell-based; settings: Homo sapiens, 96 h, 4 days
Source text: as §1, §2, §3

[4] = test system: HPAF-II pancreatic cancer cells; test: MTS cell proliferation assay, HPAF-II; assay type: cell-based; settings: Homo sapiens, 96 h, 4 days
Description: HPAF-II ATCC CRL-1997; Eagle's Minimum Essential Medium (EMEM) (ATCC® 30-2003Tm)); 10% HI FBS; 1% Pen/Strep; 1% L-Glutamine.
Cancer cell lines were seeded in 96 well plates on day 0 at optimal cell numbers. On day 1, drug formulations were added at 2-fold serial dilutions. The cells were incubated for 3-5 days and the level of inhibition of cellular proliferation was measured by the MTS assay (3-(4,5-dimethylthiazol-2-yl)-5-(3-carboxymethoxyphenyl)-2-(4-sulfophenyl)-2H-tetrazolium assay). The commercially available MTS Cell Proliferation Assay Kit (Colorimetric) (197010) is a colorimetric sensitive quantification of viable cells in proliferation and cytotoxicity assay. The assay is based on the reduction of MTS tetrazolium compound by viable cells to generate a colored formazan product that is soluble in cell culture media.
The MTS experiments are performed as follows: The night before, the cells are seeded according to the amount of cells required for each cell line in 96 well tissue culture plate. Final volume in each well is 100 μL (see Table of cell lines for reference; all cell lines obtained from ATCC).
The seeded cells are incubated at 37° C. and 5% CO 2 overnight. […]
as §3

[5] = test system: CD34+ stem cells (hematopoietic progenitor cells) differentiating into neutrophils; assay type: cell-based; settings: human, 2 days
Source text: The level of a molecule called CD15 is elevated on more mature neutrophils. This molecule is elevated on cells in the circles drawn on the plots.
FIG. 8. Neutrophil differentiation assay. One of the major side effects from gemcitabine treatment is the reduction of neutrophils in the bloodstream that counter infections. This is the result of CD34+ stem cells not differentiating, or developing, into mature neutrophils in the bone marrow. We measured the effect of targeted liposomal gemcitabine on neutrophil differentiation compared to the same dose of gemcitabine (10 and 50 μM.) Hematopoietic progenitor cells (CD34+) were purchased and treated with a panel of growth factors to induce neutrophil differentiation.
CD34+ stem cells were cultured without (A) or with (B) cytokines (growth factors) that induce neutrophil differentiation in vitro, including stem cell factor, IL-3, and […] for 2 days. […] By day 2, there is a dramatic increase in mature neutrophils depicted in the oval. […] The cells within the drawn gate (FIG. 8B) are larger, more complex maturing neutrophils that are lacking in FIG. 8A.
In more detail, experiments were performed as follows: CD34+ stem cells were obtained from ATCC. CD34+ cells were thawed at 37° C. for 1 minute. While on ice, the cells were transferred to cold stem cell medium (“StemSpan SFEM”—Stem Cell Tech. cat. #9650), 10% heat […] fetal bovine serum (HI FBS.) Each vial contained approximated 5×10^5 cell/ml. The cells were placed in 96 well tissue culture plates 35,000 cell/well.
The neutrophils GROWTH media contained 100 ng/ml of stem cell factor human (SCF-Sigma H8416, lot #MKBT8036V), 20 ng/ml of granulocyte colony-stimulation factor, human (G-CSF-Sigma H5541, lot #SLBC9602V), 10 ng/ml of IL3 recombinant human (Sigma SRP3090, lot #1008AFC13) in StemSpam media as above.
The cells were also treated as follows 1) StemSpam media alone with no growth cytokines; 2) StemSpam media+growth cytokines, and 3) Gemcitabine, Targeted Liposomal Gemcitabine and non-Targeted Liposomal Gemcitabine in amounts as indicated. […]

[6] = molecular target: T1, Reduced folate carrier (RFC) (Homo sapiens, UniProt P41440); settings: read-out: Binding affinity, Km; cited from earlier work
T1 sequence (P41440 1-591): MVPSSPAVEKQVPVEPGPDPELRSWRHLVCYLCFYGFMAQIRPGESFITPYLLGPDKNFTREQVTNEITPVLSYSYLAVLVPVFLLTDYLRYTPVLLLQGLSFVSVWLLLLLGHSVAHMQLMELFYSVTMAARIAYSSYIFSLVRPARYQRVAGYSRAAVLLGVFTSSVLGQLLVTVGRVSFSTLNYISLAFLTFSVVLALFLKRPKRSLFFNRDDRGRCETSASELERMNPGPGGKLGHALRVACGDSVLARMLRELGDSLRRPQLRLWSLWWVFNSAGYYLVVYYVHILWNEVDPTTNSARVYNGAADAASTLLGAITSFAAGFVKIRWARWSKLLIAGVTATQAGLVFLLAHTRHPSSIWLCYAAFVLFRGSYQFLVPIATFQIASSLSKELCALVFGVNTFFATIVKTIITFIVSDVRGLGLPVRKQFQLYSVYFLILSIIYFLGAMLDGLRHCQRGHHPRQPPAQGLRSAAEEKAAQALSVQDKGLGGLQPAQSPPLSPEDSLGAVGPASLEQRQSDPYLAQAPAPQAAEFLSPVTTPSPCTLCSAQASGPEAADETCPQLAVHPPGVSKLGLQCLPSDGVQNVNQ

Folate receptor α (FRα) = Folate receptor α (FRα) (Homo sapiens, UniProt P15328); settings: read-out: Binding affinity, Kd; cited from earlier work
Sequence of Folate receptor α (FRα) (P15328 25-234, species assumed): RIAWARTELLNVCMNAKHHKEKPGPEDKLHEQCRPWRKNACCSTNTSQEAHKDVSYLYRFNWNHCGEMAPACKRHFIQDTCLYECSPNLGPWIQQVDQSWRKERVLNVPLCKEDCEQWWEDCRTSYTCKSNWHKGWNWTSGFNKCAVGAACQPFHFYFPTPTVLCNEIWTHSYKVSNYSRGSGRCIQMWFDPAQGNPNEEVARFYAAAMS

- IC50 [1]: 297 µM
- IC50 [2]: 30.4 µM
- IC50 [3]: 11 µM
- IC50 [4]: 9.11 µM
- Number of live cells within the neutrophil gate (CD15+) [5]: less than 100
- Percentage of live cells within the neutrophil gate ([5]; 10 μM): less than 5%
- Percentage of live cells within the neutrophil gate ([5]; 50 μM): less than 20%
SMILES: Nc1ccn([C@@H]2O[C@H](CO)[C@@H](O)C2(F)F)c(=O)n1 [Gemcitabine, gemcitabine]

SMILES: CN(Cc1cnc2nc(N)nc(N)c2n1)c1ccc(C(=O)N[C@@H](CCC(=O)O)C(=O)O)cc1 [methotrexate]
- Km [6]: 1 to 5 µM

SMILES: CN1c2c(nc(N)[nH]c2=O)NCC1CNc1ccc(C(=O)N[C@@H](CCC(=O)O)C(=O)O)cc1 (some centres unmarked) [5-mTHF, 5-methyltetrahydrofolate]
- Kd (Folate receptor α (FRα)): 0.001 to 0.01 µM
- Km [6]: 1 to 10 µM

SMILES: Nc1nc2ncc(CNc3ccc(C(=O)N[C@@H](CCC(=O)O)C(=O)O)cc3)nc2c(=O)[nH]1 [folic acid]
- Km [6]: 200 to 400 µM
